Test results from patent US20080269201A1, “Azepane- or Azocane-Substituted Pyrazoline Derivatives, Their Preparation and Use as Medicaments” (LABORATORIOS DEL DR. ESTEVE, S.A., priority 2005, published 2008).

How the values were obtained:
[1] = biological target: T1, recombinant human cannabinoid 1 receptor (CB1), CHO cell membranes (Homo sapiens, UniProt P21554); test: [35S]GTPγS binding assay, antagonism against WIN 55,212-2; assay type: biochemical; details: compound at 1 μM against WIN 55,212-2 dose response; 100% = effect of internal standard CB1-antagonist
T1 construct: expressed in transfected cells; membranes prepared
Protocol: Chinese hamster ovary (CHO) cells stably expressing recombinant human cannabinoid 1 receptor (CB1) were cultured in nutrient mixture Ham's F 12 supplemented with 10% heat-inactivated fetal bovine serum, 2 mM L-glutamine, 50 U/ml penicillin, 50 U/ml streptomycin and 0.5 mg/ml geneticin. In order to obtain cells, culture flasks were washed twice with phosphate buffered saline and scraped. Then, cells were collected by centrifugation (200×g, 10 min) and stored dry at −80° C. Cells were homogenized in ice-cold 20 mM HEPES, 10 mM EDTA (pH 7.5) and centrifuged at 40,000×g for 15 min at 4° C. The pellet was resuspended in 20 mM HEPES, 0.1 mM EDTA (pH 7.5) and centrifuged for 15 min at 4° C. The final pellet was resuspended in 20 mM HEPES, 0.1 mM EDTA (pH 7.5), and divided in aliquots and stored at −80° C. until use.
The reaction was performed in 96-well plates. Membranes (15 µg protein/well) were incubated for 60 min at 30° C. in buffer (50 mM HEPES, 100 mM KCl, 5 mM MgCl2, 1 mM EDTA, 0.1% wt/vol bovine serum albumin, […], saponin (10 μg/ml), 0.5 nM [^35S]GTPγS, pH 7.4) with compound at 1 μM final concentration in either the absence or presence of dose response curve of agonist WIN 55, 212-2 between 3 nM and 3 μM. The incubation was terminated by rapid filtration through Millipore Multiscreen glass fiber FB, and rinsed two-times with ice-cold assay buffer. Filter plates were dried and 30 μl of scintillation liquid was added. Radioactivity was determined using Wallac Microbeta Trilux. Each experiment was performed at least in duplicate. A WIN 55, 212-2 dose-response was systematically performed.
The average of basal [^35S]GTPγS binding was subtracted from all binding data. In order to compare the antagonism results from one screening campaign to another one, the difference between the maximal agonist effect of WIN 55, 212-2 alone, and the maximal antagonism effect due to WIN 55, 212-2 with an internal standard CB1-antagonist was defined as 100%.
The determination of cannabinoid activity in-vivo was determined as described above.

[2] = In vivo testing for antiobesic activity, acute treatment; details: rats, acute oral administration, HCl-salts; body weight difference vs control
Protocol: Normally handled rats were habituated to a reversed cycle 12/12 h, and the compound as well as saline was acutely orally administered. After administration the cumulated food intake (g) was measured at 6 h and 23 h. Following that the difference in body weight between control and compound treated animals was measured.

[3] = biological target: T2, transfected human CB1 receptor (Homo sapiens, UniProt P21554); test: In-vitro determination of affinity to CB1/CB2 receptors, radioligand [3H]-CP55940; details: binding to CB1/CB2 receptors as described, table does not name the subtype, text points to CB1
T2 construct: purchased Receptor Biology, Inc
Protocol: The in-vitro determination of the affinity of the inventive quaternary ammonium salts of substituted pyrazoline compounds to CB1/CB2-Rezeptors is carried out as described in the publication of Ruth A. Ross, Heather C. Brockie et al., “Agonist-inverse agonist characterization at CB1 and CB2 cannabinoid receptors of L-759633, L759656 and AM630”, British Journal of Pharmacology, 126, 665-672, (1999), whereby the transfected human CB1 and CB2 receptors of Receptor Biology, Inc. are used. The radioligand used for both receptors is [^3H]-CP55940. The respective parts of the description are hereby incorporated by reference and forms part of the present disclosure.
The affinity of the inventive substituted pyrazoline compounds to CB1/CB2 receptors was determined as described above.

T2 sequence (P21554 whole entry): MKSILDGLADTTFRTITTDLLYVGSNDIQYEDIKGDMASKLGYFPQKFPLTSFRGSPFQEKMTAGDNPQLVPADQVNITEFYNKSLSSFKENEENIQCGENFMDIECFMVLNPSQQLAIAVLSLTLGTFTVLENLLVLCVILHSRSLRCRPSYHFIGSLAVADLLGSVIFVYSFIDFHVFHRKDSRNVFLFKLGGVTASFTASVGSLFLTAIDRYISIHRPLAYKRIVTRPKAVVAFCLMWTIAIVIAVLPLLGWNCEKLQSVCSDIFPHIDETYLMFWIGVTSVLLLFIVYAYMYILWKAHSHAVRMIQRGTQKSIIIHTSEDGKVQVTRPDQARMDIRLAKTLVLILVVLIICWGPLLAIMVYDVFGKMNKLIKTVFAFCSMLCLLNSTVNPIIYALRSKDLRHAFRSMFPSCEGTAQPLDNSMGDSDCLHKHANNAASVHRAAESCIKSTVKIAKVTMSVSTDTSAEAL
T1 sequence (P21554 whole entry): as above

Compound | Antagonism (%) [1] | Antiobesic activity (reducing weight) [2] | IC50 [3]
C[C@H]1C(C(=O)NN2CCCCCC2)=NN(c2ccc(Cl)cc2Cl)[C@H]1c1ccc(F)cc1 [Example 7] | 52% | – | –
C[C@H]1C(C(=O)NN2CCCCCC2)=NN(c2ccc(Cl)cc2Cl)[C@H]1c1ccc(Br)cc1.Cl (relative stereo) [Example 5, cis-N-(azepan-1-yl)-5-(4-bromophenyl)-1-(2,4-dichlorophenyl)-4-methyl-4,5-dihydro-1H-pyrazole-3-carboxamide hydrochloride] | 133 ± 5% | active in this model, reducing weight | 71 ± 2 nM
C[C@H]1C(C(=O)NN2CCCCCC2)=NN(c2ccc(Cl)cc2Cl)[C@H]1c1ccc(F)cc1.Cl (relative stereo) [7 (HCl), cis-N-(azepan-1-yl)-5-(4-fluorophenyl)-1-(2,4-dichlorophenyl)-4-methyl-4,5-dihydro-1H-pyrazole-3-carboxamide hydrochloride] | 83 ± 6% | – | 122 nM
C[C@H]1C(C(=O)NN2CCCCCC2)=NN(c2ccc(Cl)cc2Cl)[C@H]1c1ccc(Cl)cc1.Cl (relative stereo) [Example 1, cis-N-(azepan-1-yl)-5-(4-chlorophenyl)-1-(2,4-dichlorophenyl)-4-methyl-4,5-dihydro-1H-pyrazole-3-carboxamide hydrochloride] | 99 ± 5% | active in this model, reducing weight | 7.9 ± 2.8 nM
COc1ccc([C@H]2[C@@H](C)C(C(=O)NN3CCCCCC3)=NN2c2ccc(Cl)cc2Cl)cc1.Cl (relative stereo) [Example 9, cis-N-(azepan-1-yl)-1-(2,4-dichlorophenyl)-5-(4-methoxyphenyl)-4-methyl-4,5-dihydro-1H-pyrazole-3-carboxamide hydrochloride] | 117 ± 5% | active in this model, reducing weight | 61 nM
